Assay results from patent US11795510B2, “Identification of epigenomic reprogramming in cancer and uses thereof” (The Johns Hopkins University, priority 2016, dated 2023).
Entries after “also recorded” stand apart in the source; their conditions may differ.

Assays:
Type in all cases: cell-based, human
[1] = test system: distant metastatic and precursor subclones; test: YSI metabolite analysis (glucose/glutamine consumption, lactate/glutamate secretion)
Experimental: (§1) Tissue samples and cell lines were previously collected from PDAC patients by rapid autopsy, sequenced-validated, and monitored for mycoplasma as previously described. Low passage (2-17) rapid autopsy cell lines were cultured at 37° C. in DMEM with 10% fetal bovine serum (FBS, Gibco). For MTT assays, 15,000 cells/well were plated into 96 well plates in triplicate, treated 12 hours later, and assayed after 24 hr (glucose responses) or 6 days (chemotherapy) with CellTiter96 (Promega). For glucose response assays, nutrient-deplete DMEM (no glucose, glutamine, pyruvate, or serum) was used with addition of glucose as indicated. […] Cells were then washed with PBS, trypsinized, and viable cells counted with a hemocytometer. Glucose uptake and lactate secretion were measured with a YSI 7100 Bioanalyzer as described in the supplementary methods. […]
YSI metabolite analysis. Metabolite consumption (glucose and glutamine) and production (lactate and glutamate) were measured using a YSI 7100 Bioanalyzer. […] At day 0 cells were counted (3 wells) or cultured in either regular medium or medium supplemented with the indicated compound. […] The area under the curve (AUC) was calculated as N(T)d/ln2([…]), where N(T) is the final cell count, d is doubling time, and T is time of experiment. […]

[2] = test system: glucose incorporation into lactate and nucleotides (PPP); test: 13C-1,2 glucose tracing by LC-HRMS; conditions: 10 mM 13C-1,2 glucose, 36 hours
Experimental: as §1
LC-HRMS Metabolite Profiling. LC-HRMS samples were prepared and analyzed as described in Liu et al. (Development and quantitative evaluation of a high-resolution metabolomics technology. Anal Chem 86, 2175-84 (2014)). […] Additional replicates were also included and counted at the end of the experiment for normalization. […] Pellets were reconstituted into a volume normalized to protein content (15 uL of 1:1 acetonitrile:methanol and 15 uL of water was used per 1 mg protein) and analyzed by LC-QE-MS. […]

[3] = test system: local-regional PDAC samples; test: 3-D suspension tumorsphere assay, local-regional PDACs
Experimental: 3-D matrigel assays were adapted from Cheung et al. (Control of alveolar differentiation by the lineage transcription factors GATA6 and HOPX inhibits lung adenocarcinoma metastasis. Cancer Cell 23, 725-38 (2013)). Briefly, 2-D cultures were trypsinized into single cells, 4,000cells/mL were suspended and thoroughly mixed in ice-cold DMEM containing 5% matrigel (BD systems) and 2% FBS (+/−DMSO/6AN as needed), 500 ul plated in quadruplicate into 24 well ultra-low attachment plates, and incubated for at least 7 days to allow tumor growth. Well-formed tumors were then counted and representative photographs taken with an EVOS instrument. 3-D suspension tumorsphere assays were performed with 20,000 starting cells/well in ultra-low attachment 6 well plates as described, and tumors counted/photographed after at least 7 days of tumor growth.

[4] = test system: distant metastatic subclones; test: Organotypic tumor forming assay (3D organotypic stromal cultures)
Experimental: Organotypic tumor forming assays were adapted from Ridky et al. (P.A. Invasive three-dimensional organotypic neoplasia from multiple normal human epithelia. Nat Med 16, 1450-5 (2010)) and Andl et al. (Epidermal growth factor receptor mediates increased cell proliferation, migration, and aggregation in esophageal keratinocytes in vitro and in vivo. J Biol Chem 278, 1824-30 (2003)). Briefly, 6 well permeable transwell plates (Costar 3414) were overlayed with 1 mL type 1 collagen containing 10×DMEM (acellular layer). Human dermal fibroblasts (ATCC) were suspended (12×10^6 cells/mL) in a mixture of ice cold 10×DMEM, 10% FBS, 52.5% collagen, and 17.5% matrigel (cellular layer), thoroughly mixed, and 2 mL/well plated over the acellular layer. The mixture was allowed to partially solidify for approximately 15 minutes at 37° C., followed by triplicate injection of 1×10^6 PDAC (suspended in 20 ul DMEM) cells into the cellular layer. Cells were incubated for 24 hours in fibroblast growth media above and below the inserts to initiate contraction of the discs. […] Discs were harvested, fixed overnight in 10% formalin, […], and stained with H&E. Tumors were photographed and measured with an Olympus BX53 microscope using cellSens Standard software.

## NC(=O)c1ccc(N)nc1 [6AN, 6-aminonicotinamide]
[1]
  glutamine consumption or glutamate secretion: no effect
  rates of glucose consumption and lactate secretion: selectively slowed
[2]
  incorporation of labeled glucose into lactate and nucleotides (metabolites downstream of the PPP): reversed the previously detected high incorporation; also recorded: reduced incorporation
[3]
  tumor formation in 3-D suspension tumorsphere assays: minimal effects; also recorded: did not interfere
[4]
  tumor formation after injection into 3D organotypic stromal cultures: selectively and strongly blocked tumor formation; also recorded: blocked
